From patent publication US12581252B2, “Substituted pyrrolo[3,4-b]pyridines as PI3K-α inhibitors” (Relay Therapeutics, Inc., priority 2020, dated 2026)

Each compound was assayed against H1047R PIK3CA enzyme (Homo sapiens, UniProt P42336, H1047R) (assay: ADP-Glo Biochemical PIK3CA Kinase Assay).
Chain of H1047R PIK3CA enzyme (P42336 whole entry H1047R): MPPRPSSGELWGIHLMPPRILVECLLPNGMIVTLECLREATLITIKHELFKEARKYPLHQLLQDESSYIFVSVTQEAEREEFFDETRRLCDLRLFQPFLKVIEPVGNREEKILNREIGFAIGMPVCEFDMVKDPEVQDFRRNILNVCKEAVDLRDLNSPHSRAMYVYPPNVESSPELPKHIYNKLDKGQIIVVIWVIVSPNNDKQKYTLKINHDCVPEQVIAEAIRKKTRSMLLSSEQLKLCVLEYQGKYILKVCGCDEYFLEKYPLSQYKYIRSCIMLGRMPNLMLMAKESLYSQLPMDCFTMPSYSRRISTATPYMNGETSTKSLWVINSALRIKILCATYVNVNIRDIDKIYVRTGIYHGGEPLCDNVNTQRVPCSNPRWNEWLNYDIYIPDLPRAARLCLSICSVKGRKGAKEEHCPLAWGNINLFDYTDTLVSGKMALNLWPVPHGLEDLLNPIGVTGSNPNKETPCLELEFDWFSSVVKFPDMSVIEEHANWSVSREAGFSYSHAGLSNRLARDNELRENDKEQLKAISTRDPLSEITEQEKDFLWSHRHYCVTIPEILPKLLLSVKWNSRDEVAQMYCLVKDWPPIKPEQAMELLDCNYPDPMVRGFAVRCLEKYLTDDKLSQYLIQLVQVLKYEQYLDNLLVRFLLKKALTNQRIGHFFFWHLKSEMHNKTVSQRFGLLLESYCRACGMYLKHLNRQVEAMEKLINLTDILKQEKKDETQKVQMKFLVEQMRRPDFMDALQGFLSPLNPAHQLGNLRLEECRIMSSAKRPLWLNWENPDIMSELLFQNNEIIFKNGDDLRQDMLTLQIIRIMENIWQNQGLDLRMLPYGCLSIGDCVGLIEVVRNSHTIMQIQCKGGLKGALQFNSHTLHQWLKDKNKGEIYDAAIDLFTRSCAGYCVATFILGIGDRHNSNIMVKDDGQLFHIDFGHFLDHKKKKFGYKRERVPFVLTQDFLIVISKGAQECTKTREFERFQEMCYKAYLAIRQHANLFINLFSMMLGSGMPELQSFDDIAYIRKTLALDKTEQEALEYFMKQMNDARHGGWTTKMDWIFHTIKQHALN
Chain of H1047R PIK3CA enzyme (P27986 whole entry partner): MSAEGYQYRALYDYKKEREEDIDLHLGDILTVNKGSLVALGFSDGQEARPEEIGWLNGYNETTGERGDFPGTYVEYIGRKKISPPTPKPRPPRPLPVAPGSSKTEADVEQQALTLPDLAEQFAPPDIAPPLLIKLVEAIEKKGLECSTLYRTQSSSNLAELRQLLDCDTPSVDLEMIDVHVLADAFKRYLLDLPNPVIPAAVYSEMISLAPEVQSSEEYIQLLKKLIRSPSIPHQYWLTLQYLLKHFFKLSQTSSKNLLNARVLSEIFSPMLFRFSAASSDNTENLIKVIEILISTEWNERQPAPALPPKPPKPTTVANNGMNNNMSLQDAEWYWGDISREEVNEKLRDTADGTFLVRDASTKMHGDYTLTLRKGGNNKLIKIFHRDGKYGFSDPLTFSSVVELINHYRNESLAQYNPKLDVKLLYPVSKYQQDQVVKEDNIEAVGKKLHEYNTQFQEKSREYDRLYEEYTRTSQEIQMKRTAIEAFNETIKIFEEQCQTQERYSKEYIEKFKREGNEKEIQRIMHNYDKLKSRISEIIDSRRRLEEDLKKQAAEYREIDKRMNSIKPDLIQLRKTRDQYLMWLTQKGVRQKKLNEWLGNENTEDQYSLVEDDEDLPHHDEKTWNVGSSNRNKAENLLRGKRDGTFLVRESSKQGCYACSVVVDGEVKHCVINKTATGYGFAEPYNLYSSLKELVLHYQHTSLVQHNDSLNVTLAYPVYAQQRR

SMILES	IC50 [nM]
COCC(=O)Nc1cc(NC(=O)c2cc(F)cc(C(F)(F)F)c2)c2c(c1)C(=O)NC2c1cc(F)ccc1Cl (stereo not drawn) [Compound I-346]	≤ 100
Nc1nc2cc(-c3cc(NC(=O)c4cc(F)cc(C(F)(F)F)c4)c4c(c3)C(=O)N[C@@H]4c3cc(F)ccc3Cl)ccn2n1 [Compound I-1446]	≤ 100
NC(=O)Cn1cc(-c2cc(NC(=O)c3cc(F)cc(C(F)(F)F)c3)c3c(c2)C(=O)NC3c2cc(F)ccc2Cl)cn1 (stereo not drawn) [Compound I-1481]	≤ 100
COc1cc(C(=O)Nc2cc(Br)cc3c2C(c2cc(F)ccc2Cl)NC3=O)ccc1F (stereo not drawn) [Compound I-559]	1000 to 10000
O=C(Nc1cc(N[C@H]2C[C@H](F)C2)cc2c1C(c1cc(F)ccc1Cl)NC2=O)c1cc(F)cc(C(F)(F)F)c1 (single isomer, unassigned) [Compound I-540]	≤ 100
C[S@](=O)(Cc1cc(NC(=O)c2cc(F)cc(C(F)(F)F)c2)c2c(c1)C(=O)N[C@H]2c1cc(F)ccc1Cl)=NC#N (single isomer, unassigned) [Compound I-1564]	≤ 100
Cc1ccccc1-n1[nH]c(=O)c2cccc(NC(=O)c3nsc4ccc(F)cc34)c21 [Compound I-152]	1000 to 10000
O=C(Nc1cc(Br)cc2c1C(c1cc(F)ccc1Cl)NC2=O)c1cc(O)cc(Cl)c1 (stereo not drawn) [Compound I-1282]	100 to 500
O=C(Nc1cc(Cn2cccn2)cc2c1[C@@H](c1cc(F)ccc1Cl)NC2=O)c1cc(F)cc(C(F)(F)F)c1 (stereo in doubt) [Compound I-1614]	100 to 500
O=C(Nc1cc(-c2ccc(=O)n(C(F)F)c2)cc2c1[C@H](c1cc(F)ccc1Cl)NC2=O)c1cc(F)cc(C(F)(F)F)c1 [Compound I-1861]	≤ 100
CC(C)n1cc(-c2cc(NC(=O)c3cc(F)cc(C(F)(F)F)c3)c3c(c2)C(=O)N[C@H]3c2cc(F)ccc2Cl)ccc1=O [Compound I-743]	≤ 100
CC[C@]1(O)CN(C(=O)Nc2cccc3c2[C@@H](c2cc(F)ccc2Cl)NC3=O)c2ccc(F)cc21 (single isomer, unassigned) [Compound I-2460]	1000 to 10000
Cc1ccccc1C1NC(=O)c2c(C(N)=O)ccc(NC(=O)c3cc(F)cc(C(F)(F)F)c3)c21 (stereo not drawn) [Compound I-339]	100 to 500
Cc1ccccc1C1NC(=O)c2cccc(NC(=O)c3cccc(C(F)(F)F)c3F)c21 (stereo not drawn) [Compound I-12]	10000 to 100000
O=C1N[C@@H](c2cc(F)ccc2Cl)c2c(NC(=O)N3CC4(CC4)c4cc(F)ccc43)cc(Br)cc21 (stereo in doubt) [Compound I-1509]	≤ 100
Cn1cncc1C#Cc1cc(NC(=O)c2cc(F)cc(C(F)(F)F)c2)c2c(c1)C(=O)NC2c1cc(F)ccc1Cl (stereo not drawn) [Compound I-1247]	≤ 100
O=C1NC(c2cc(F)ccc2Cl)c2c(NC(=O)N3CC(CO)C(C(F)(F)F)C3)cccc21 (stereo not drawn) [Compound I-2181]	10000 to 100000
O=C1N[C@@H](c2cc(F)ccc2Cl)c2c(NC(=O)N3C[C@@](O)(C(F)(F)F)c4cc(F)ccc43)cc(Cl)nc21 (single isomer, unassigned) [Compound I-2705]	1000 to 10000
N#Cc1ccc2c(c1)CCCN2c1cc(NC(=O)c2cc(F)cc(C(F)(F)F)c2)c2c(c1)C(=O)NC2c1cc(F)ccc1Cl (stereo not drawn) [Compound I-1262]	≤ 100
O=C(Nc1cc(-c2cnn(-c3ncc(F)cn3)c2)cc2c1C(c1cc(F)ccc1Cl)NC2=O)c1cc(F)cc(C(F)(F)F)c1 (stereo not drawn) [Compound I-1616]	≤ 100
O=C(Nc1cc(Oc2ncncc2F)cc2c1C(c1cc(F)ccc1Cl)NC2=O)c1cc(F)cc(C(F)(F)F)c1 (stereo not drawn) [Compound I-1246]	≤ 100
CS(=O)(=O)Cn1cc(-c2cc(NC(=O)c3cc(F)cc(C(F)(F)F)c3)c3c(c2)C(=O)NC3c2cc(F)ccc2Cl)cn1 (stereo not drawn) [Compound I-1336]	≤ 100
Cc1ccccc1-n1[nH]c(=O)c2cccc(NC(=O)c3csc4ccccc34)c21 [Compound I-68]	500 to 1000

SMILES	IC50 [nM]
CS(=O)(=O)C1CN(c2cc(NC(=O)c3cc(F)cc(C(F)(F)F)c3)c3c(n2)C(=O)NC3c2cc(F)ccc2Cl)C1 (stereo not drawn) [Compound I-418]	100 to 500
O=C(Nc1cccc2c1C(C1=CCCCC1)NC2=O)c1cc(F)cc(C(F)(F)F)c1 (stereo not drawn) [Compound I-1629]	1000 to 10000
N#CCOc1cc(NC(=O)c2cc(F)cc(C(F)(F)F)c2)c2c(c1)C(=O)N[C@H]2c1cc(F)ccc1Cl [Compound I-1888]	≤ 100
CC1CN(C(=O)Nc2cc(Br)cc3c2C(c2cc(F)ccc2Cl)NC3=O)CCN1C (racemic) [Compound I-686]	10000 to 100000
O=C(Nc1cc(Br)cc2c1C(c1cc(F)ccc1Cl)NC2=O)c1cccc(F)c1 (stereo not drawn) [Compound I-526]	1000 to 10000
O=C1NC(c2cc(F)ccc2Cl)c2c(Nc3nccc4cc[nH]c34)cc(Br)cc21 (stereo not drawn) [Compound I-1460]	10000 to 100000
CC1(Nc2cc(NC(=O)c3cc(F)cc(C(F)(F)F)c3)c3c(c2)C(=O)NC3c2cc(F)ccc2Cl)COC1 (stereo not drawn) [Compound I-610]	≤ 100
O=C1N[C@@H](c2cc(F)ccc2Cl)c2c(NC(=O)N3C[C@@H](O)c4cc(F)ccc43)cc(-c3ccc(=O)n(C(F)F)c3)cc21 (single isomer, unassigned) [Compound I-2451]	1000 to 10000
O=C(Nc1cccc2c1C(c1ccnc(O)c1)NC2=O)c1cc(F)cc(C(F)(F)F)c1 (stereo not drawn) [Compound I-658]	10000 to 100000
O=C1NC(c2cc(F)ccc2Cl)c2c1cc(-c1ccc3ncnn3c1)cc2S(=O)(=O)Cc1ccccc1 (stereo not drawn) [Compound I-1742]	1000 to 10000
O=C(Nc1cc(-c2cnn(C3CC3)c2)cc2c1[C@@H](c1cc(F)ccc1Cl)NC2=O)c1cc(F)cc(C(F)(F)F)c1 (single isomer, unassigned) [Compound I-1021]	10000 to 100000
Cc1ccccc1C1NC(=O)c2c(Br)ccc(NC(=O)c3nsc4ccccc34)c21 (stereo not drawn) [Compound I-203]	≤ 100
O=C(Nc1cc(Br)cc2c1C(c1cc(F)ccc1Cl)NC2=O)c1ccnc(C(F)(F)F)c1 (stereo not drawn) [Compound I-523]	10000 to 100000
O=C(Nc1cc(Br)cc2c1C(c1cc(F)ccc1Cl)NC2=O)c1cc(Cl)ccc1OC(F)(F)F (stereo not drawn) [Compound I-859]	1000 to 10000
COc1c(Cl)cc(F)cc1C(=O)Nc1cc(Br)cc2c1C(c1cc(F)ccc1Cl)NC2=O (stereo not drawn) [Compound I-834]	1000 to 10000
CNC(=O)n1cc(-c2cc(NC(=O)c3cc(F)cc(C(F)(F)F)c3)c3c(c2)C(=O)NC3c2cc(F)ccc2Cl)cn1 (stereo not drawn) [Compound I-1505]	≤ 100
C[C@@H]([C@@H]1C[C@H](O)CN1C(=O)Nc1cccc2c1[C@H](c1cc(F)ccc1Cl)NC2=O)C(F)(F)F (single isomer, unassigned) [Compound I-2393]	500 to 1000
O=C(Nc1cccc2c1C(C1CCCCN1)NC2=O)c1cc(F)cc(C(F)(F)F)c1 (stereo not drawn) [Compound I-1675]	1000 to 10000
O=C1N[C@H](c2cc(F)ccc2Cl)c2c(NC(=O)[C@H]3CC[C@@H](O)C3)cc(Br)cc21 (single isomer, unassigned) [Compound I-2103]	10000 to 100000
O=C1NC(c2cc(F)ccc2Cl)c2c(NC(=O)C3CCCC(F)(F)C3)cc(-c3ccc4ncnn4c3)cc21 (stereo not drawn) [Compound I-1750]	1000 to 10000
O=C1N[C@H](c2cc(F)ccc2Cl)c2c(NC(=O)[C@H]3C[C@H]3C(F)(F)F)cc(Br)cc21 (racemic) [Compound I-1854]	10000 to 100000
Cc1ccccc1C1NC(=O)c2ccnc(NC(=O)c3nsc4ccccc34)c21 (stereo not drawn) [Compound I-176, N-[3-(2-Methylphenyl)-1-oxo-1H,2H,3H-pyrrolo[3,4-c]pyridin-4-yl]-1,2-benzothiazole-3-carboxamide]	1000 to 10000
